Assay results published in ChEMBL document CHEMBL1157538, “Discovery of a potent, selective, and orally bioavailable c-Met inhibitor: 1-(2-hydroxy-2-methylpropyl)-N-(5-(7-methoxyquinolin-4-yloxy)pyridin-2-yl)-5-methyl-3-oxo-2-phenyl-2,3-dihydro-1H-pyrazole-4-carboxamide (AMG 458)” (J Med Chem, 2008).

Columns and labels:
[1] = tested on: Mus musculus; assay: Inhibition of HGF-mediated c-Met phosphorylation in BALB/c mouse liver at 30 mg/kg, po after 6 hrs; format: functional; set-up: scale not given: the % may be the effect or the level left
[2] = Half life in rat; format: ADME, organism-based; details: in vivo
[3] = Clearance in rat; format: ADME, organism-based; details: in vivo
[4] = Intrinsic clearance in Sprague-Dawley rat liver microsome; format: ADME; details: liver microsomes
[5] = Oral bioavailability in rat; format: ADME, organism-based; details: in vivo
[6] = Intrinsic clearance in BALB/c mouse liver microsome; format: ADME; details: liver microsomes
[7] = Intrinsic clearance in human liver microsome; format: ADME; details: liver microsomes

half-life [2]: 1.9 h | clearance [3]: < 3.33 mL/min/kg | microsomal CLint [4]: < 60 µL/min/mg | bioavailability [5]: > 50% | microsomal CLint [6]: < 45 µL/min/mg | microsomal CLint [7]: < 55 µL/min/mg
SMILES: COc1ccc2c(Oc3ccc(NC(=O)c4c(C)n(C[C@@H](C)O)n(-c5ccccc5)c4=O)cc3F)ccnc2c1
Activity [1]: 98%
